Assay results as given in US20260272925A1, “CDK2 MODULATORS, COMPOSITIONS, AND METHODS OF USE THEREOF” (Type6 Therapeutics, Inc., priority 2023, published 2026).

molecular target: T1, Cdk2(2-298) (Homo sapiens, UniProt P24941); assay: Surface Plasmon Resonance (SPR), Biacore 8K, compound interaction with immobilized kinase; assay type: binding; details: biotinylated N-terminal avi-tagged protein on Chip SA, single-cycle kinetics (SCK, "S") mode, 1% DMSO, pH 7.5, read-out: Activity rating* (KD)
T1 construct: Biotinylated N-terminal avi-tagged Cdk2(2-298) or Cdk1(1-297) was immobilized
Protocol: Surface Plasmon Resonance (SPR) Method Description
Compound interaction was profiled using a Biacore 8K instrument (Cytiva). Biotinylated N-terminal avi-tagged Cdk2(2-298) or Cdk1(1-297) was immobilized on a series S sensor Chip SA at a capture level between 2500 RU and 3000 RU (Cdk2) or 7000 RU (Cdk1) in buffer (25 mM HEPES, 150 mM NaCl, 0.05% Tween20, pH 7.5). A compound dilution plate (8 concentrations, 3-fold dilution) in DMSO was prepared (100× assay concentration). From this plate, compound DMSO stock solution was transferred into buffer, yielding a final DMSO concentration of 1% in assay. The remaining buffer was supplemented with 1% DMSO. Compounds were injected in a series of increasing concentrations in multi-cycle kinetics (MCK, “M”) or single-cycle kinetics (SCK, “S”) mode at a flow rate of 30 μl/min for 120 sec and dissociation was profiled for 180 sec (MCK) or 1800 sec (SCK). Data were analysed using Biacore Insight Evaluation Software (Cytiva).

Kd	Compound
11 to 100 nM	O=S(=O)(Nc1ccc(Oc2nccnc2-c2ccnc(N[C@H]3CCCNC3)n2)c(F)c1)c1ccccc1Cl [Compound 390, N-[3-Fluoro-4-[[3-[2-[[(3S)-3-piperidinyl]amino]pyrimidin-4-yl]-2-pyrazinyl]oxy]phenyl]2-chlorobenzenesulfonamide]
≤ 10 nM	O=S(=O)(Nc1ccc(Oc2ncsc2-c2ccnc(N[C@H]3CCCNC3)n2)c(F)c1)c1ccccc1Cl [Compound 391, N-[3-Fluoro-4-[[5-[2-[[(3S)-3-piperidinyl]amino]pyrimidin-4-yl]-4-thiazolyl]oxy]phenyl]2-chlorobenzenesulfonamide]
100 to 1000 nM	N[C@H]1CC[C@H](Nc2nccc(-c3nccnc3Oc3ccc(NS(=O)(=O)c4ccccc4Cl)cc3F)n2)CC1 [Compound 402, N-[4-[(1r,4r)[3-[2-[(4-Aminocyclohexyl)amino]pyrimidin-4-yl]pyrazin-2-yl]oxy]-3-fluorophenyl]2-chlorobenzenesulfonamide]
≤ 10 nM	N[C@H]1CC[C@H](Nc2nccc(-c3scnc3Oc3ccc(NS(=O)(=O)c4ccccc4Cl)cc3F)n2)CC1 [Compound 403, N-[4-[(1r,4r)[5-[2-[(4-Aminocyclohexyl)amino]pyrimidin-4-yl]thiazol-4-yl]oxy]-3-fluorophenyl]2-chlorobenzenesulfonamide]
≤ 10 nM	N[C@H]1CC[C@H](Nc2nccc(-c3cccnc3Oc3ccc(NS(=O)(=O)c4ccccc4Cl)cc3F)n2)CC1 [Compound 410, N-[4-[(1r,4r)[3-[2-[(4-Aminocyclohexyl)amino]pyrimidin-4-yl]pyrid-2-yl]oxy]-3-fluorophenyl]2-chlorobenzenesulfonamide]
11 to 100 nM	N[C@H]1CC[C@H](Nc2nccc(-c3cccnc3Oc3ccc(NS(=O)(=O)c4ccccc4Cl)cc3)n2)CC1 [Compound 411, N-[4-[(1r,4r)[3-[2-[(4-Aminocyclohexyl)amino]pyrimidin-4-yl]-2-pyridyl]oxy]phenyl]2-chlorobenzenesulfonamide]
11 to 100 nM	O=S(=O)(Nc1ccc(Oc2ncccc2-c2ccnc(N[C@H]3CCCNC3)n2)cc1)c1ccccc1Cl [Compound 412, N—((S)-4-((3-(2-(Piperidin-3-ylamino)pyrimidin-4-yl)pyridin-2-yl)oxy)phenyl) 2-chlorobenzenesulfonamide]
≤ 10 nM	O=S(=O)(Nc1ccc(Oc2ncccc2-c2ccnc(N[C@H]3CCCNC3)n2)c(F)c1)c1ccccc1Cl [Compound 413, N—((S)-4-((3-(2-(piperidin-3-ylamino)pyrimidin-4-yl)pyridin-2-yl)oxy)-3-fluorophenyl) 2-chlorobenzenesulfonamide]
≤ 10 nM	N[C@H]1CC[C@H](Nc2nccc(-c3cccnc3Oc3cc(Cl)c(NS(=O)(=O)c4ccccc4Cl)cc3F)n2)CC1 [Compound 414, N-[4-[(1r,4r)[3-[2-[(4-Aminocyclohexyl)amino]pyrimidin-4-yl]pyrid-2-yl]oxy]-6-chloro-3-fluorophenyl]2-chlorobenzenesulfonamide]
11 to 100 nM	N[C@H]1CC[C@H](Nc2nccc(-c3cccnc3Oc3ccc(NS(=O)(=O)c4cccc5ccccc45)cc3F)n2)CC1 [Compound 415, N-[4-[(1r,4r)[3-[2-[(4-Aminocyclohexyl)amino]pyrimidin-4-yl]pyrid-2-yl]oxy]-3-fluorophenyl]naphthalene-1-sulfonamide]
11 to 100 nM	N[C@H]1CC[C@H](Nc2nccc(-c3cccnc3Oc3cc(Cl)c(NS(=O)(=O)c4cccc5ccccc45)cc3F)n2)CC1 [Compound 416, N-[4-[(1r,4r)[3-[2-[(4-Aminocyclohexyl)amino]pyrimidin-4-yl]pyrid-2-yl]oxy]-6-chloro-3-fluorophenyl]naphthalene-1-sulfonamide]
100 to 1000 nM	N[C@H]1CC[C@H](Nc2nccc(-c3cccnc3Oc3ccc(NS(=O)(=O)c4ccc5ccccc5c4)cc3F)n2)CC1 [Compound 417, N-[4-[(1r,4r)[3-[2-[(4-Aminocyclohexyl)amino]pyrimidin-4-yl]pyrid-2-yl]oxy]-3-fluorophenyl]naphthalene-2-sulfonamide]
